Experimental data: ChEMBL document CHEMBL5665443, “Enzyme Inhibitor Single Concentration assay results for EUbOPEN Chemogenomics Library” (2024)

How the values were obtained:
Details in all cases: Compound Concentration 10.0 uM, Hit No
[1] = molecular target: T1, Endonuclease 8-like 2 (Homo sapiens) (UniProt Q969S2);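 further: fluorescence at 594 nm reports NEIL2 cutting and release of a quenched double-stranded DNA oligo substrate, reduced signal read as inhibition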
T1 sequence (whole entry): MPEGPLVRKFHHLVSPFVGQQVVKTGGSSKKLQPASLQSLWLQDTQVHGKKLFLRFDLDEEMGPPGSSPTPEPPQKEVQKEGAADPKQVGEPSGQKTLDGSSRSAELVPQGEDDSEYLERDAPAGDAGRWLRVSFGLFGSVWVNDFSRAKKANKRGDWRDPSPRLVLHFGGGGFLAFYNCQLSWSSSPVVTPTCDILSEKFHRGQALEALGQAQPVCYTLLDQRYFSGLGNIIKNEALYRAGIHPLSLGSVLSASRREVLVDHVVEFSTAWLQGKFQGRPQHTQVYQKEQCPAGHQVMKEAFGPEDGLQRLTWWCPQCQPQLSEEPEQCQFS
Description: Inhibition of NEIL2 by quantifying inhibition of NEIL2-mediated cleavage and dissociation of quenched duplex DNA oligonucleotides, measured as fluorescence at 594 nm.

[2] = molecular target: Uracil-DNA glycosylase (Homo sapiens) (UniProt P13051);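 further: UNG excision on a quenched double-stranded DNA oligo probe, with APE1 added for strand incision and turnover, read as fluorescence at 594 nm as strands separate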
Uracil-DNA glycosylase (Homo sapiens), sequence (P13051 whole entry): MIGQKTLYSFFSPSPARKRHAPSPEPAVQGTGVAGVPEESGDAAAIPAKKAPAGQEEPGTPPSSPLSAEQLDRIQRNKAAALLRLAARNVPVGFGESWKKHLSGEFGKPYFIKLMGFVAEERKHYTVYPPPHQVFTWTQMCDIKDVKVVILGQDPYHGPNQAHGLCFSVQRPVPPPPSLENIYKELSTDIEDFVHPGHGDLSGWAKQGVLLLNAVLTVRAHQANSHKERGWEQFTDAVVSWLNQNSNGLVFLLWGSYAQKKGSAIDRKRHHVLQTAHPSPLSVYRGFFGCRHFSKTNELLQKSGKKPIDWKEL
Description: Inhibition of UNG by quantifying inhibition of UNG-mediated cleavage and dissociation of quenched duplex DNA oligonucleotides, measured as fluorescence at 594 nm. To generate a functional strand incision and increase turn-over this assay is coupled to APE1.

[3] = molecular target: DNA-3-methyladenine glycosylase (Homo sapiens) (UniProt P29372);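 further: enzyme assay where MPG cuts a quenched duplex DNA oligonucleotide probe, paired with APE1 for strand incision and turnover, read as fluorescence at 594 nm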
DNA-3-methyladenine glycosylase (Homo sapiens), sequence (P29372 whole entry): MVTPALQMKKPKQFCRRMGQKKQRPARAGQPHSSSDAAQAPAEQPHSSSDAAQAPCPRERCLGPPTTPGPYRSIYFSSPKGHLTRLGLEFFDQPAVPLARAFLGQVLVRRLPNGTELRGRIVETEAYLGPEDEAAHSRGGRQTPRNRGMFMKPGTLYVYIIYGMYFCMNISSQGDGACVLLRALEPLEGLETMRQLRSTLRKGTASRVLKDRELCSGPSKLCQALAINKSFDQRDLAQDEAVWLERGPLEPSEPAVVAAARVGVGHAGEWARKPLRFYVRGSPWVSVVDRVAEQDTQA
Description: Inhibition of MPG by quantifying inhibition of MPG-mediated cleavage and dissociation of quenched duplex DNA oligonucleotides, measured as fluorescence at 594 nm. To generate a functional strand incision and increase turn-over this assay is coupled to APE1.

[4] = molecular target: T2, Endonuclease III-like protein 1 (Homo sapiens) (UniProt P78549);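 further: enzyme assay tracking NTHL1 cutting and release of a quenched double-stranded DNA oligo substrate, read as fluorescence at 594 nm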
T2 sequence (whole entry): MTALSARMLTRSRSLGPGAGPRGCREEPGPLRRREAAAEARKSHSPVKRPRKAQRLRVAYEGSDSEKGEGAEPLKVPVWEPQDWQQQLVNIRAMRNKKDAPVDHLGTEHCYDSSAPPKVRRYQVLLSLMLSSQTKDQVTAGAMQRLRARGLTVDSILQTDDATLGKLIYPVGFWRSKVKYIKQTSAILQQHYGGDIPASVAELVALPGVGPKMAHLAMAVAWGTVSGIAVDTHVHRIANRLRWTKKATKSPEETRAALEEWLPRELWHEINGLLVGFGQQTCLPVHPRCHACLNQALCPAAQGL
Description: Inhibition of NTHL1 by quantifying inhibition of NTHL1-mediated cleavage and dissociation of quenched duplex DNA oligonucleotides, measured as fluorescence at 594 nm.

[5] = molecular target: Methyl-CpG-binding domain protein 4 (Homo sapiens) (UniProt O95243);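 further: MBD4 activity read as fluorescence at 594 nm from cleavage and release of a quenched duplex DNA oligonucleotide, with APE1 coupled to incise the strand and raise turnover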
Methyl-CpG-binding domain protein 4 (Homo sapiens), sequence (O95243 whole entry, the tested form may be a part): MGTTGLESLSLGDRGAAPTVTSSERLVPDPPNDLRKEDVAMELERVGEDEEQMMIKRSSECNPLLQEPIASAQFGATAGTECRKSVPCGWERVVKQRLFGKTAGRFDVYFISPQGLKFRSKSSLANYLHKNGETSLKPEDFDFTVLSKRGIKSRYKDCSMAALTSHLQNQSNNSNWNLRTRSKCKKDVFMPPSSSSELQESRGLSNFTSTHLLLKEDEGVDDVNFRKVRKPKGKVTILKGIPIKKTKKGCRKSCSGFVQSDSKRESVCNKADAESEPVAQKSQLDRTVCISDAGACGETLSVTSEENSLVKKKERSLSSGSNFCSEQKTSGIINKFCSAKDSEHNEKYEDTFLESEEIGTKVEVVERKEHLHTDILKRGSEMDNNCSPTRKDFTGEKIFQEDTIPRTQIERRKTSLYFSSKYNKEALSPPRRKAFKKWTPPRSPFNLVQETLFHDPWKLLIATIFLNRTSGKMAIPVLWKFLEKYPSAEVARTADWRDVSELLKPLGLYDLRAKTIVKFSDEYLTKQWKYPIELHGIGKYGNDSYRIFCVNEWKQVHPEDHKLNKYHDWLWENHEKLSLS
Description: Inhibition of MBD4 by quantifying inhibition of MBD4-mediated cleavage and dissociation of quenched duplex DNA oligonucleotides, measured as fluorescence at 594 nm. To generate a functional strand incision and increase turn-over this assay is coupled to APE1.

[6] = molecular target: Endonuclease 8-like 1 (Homo sapiens) (UniProt Q96FI4);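 further: fluorescence at 594 nm from quenched duplex DNA oligonucleotides released by NEIL1 cleavage and strand separation, reported as reduction of this enzyme activity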
Endonuclease 8-like 1 (Homo sapiens), sequence (Q96FI4 whole entry): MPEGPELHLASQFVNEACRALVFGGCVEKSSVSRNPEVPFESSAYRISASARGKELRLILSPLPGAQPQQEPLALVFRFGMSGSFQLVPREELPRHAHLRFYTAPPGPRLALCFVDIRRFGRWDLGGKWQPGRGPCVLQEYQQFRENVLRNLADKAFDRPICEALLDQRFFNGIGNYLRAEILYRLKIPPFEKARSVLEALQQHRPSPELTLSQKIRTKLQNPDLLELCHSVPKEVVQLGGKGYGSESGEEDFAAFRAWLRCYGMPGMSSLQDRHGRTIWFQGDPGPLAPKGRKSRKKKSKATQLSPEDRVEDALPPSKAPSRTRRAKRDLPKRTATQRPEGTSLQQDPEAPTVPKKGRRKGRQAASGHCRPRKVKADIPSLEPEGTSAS
Description: Inhibition of NEIL1 by quantifying inhibition of NEIL1-mediated cleavage and dissociation of quenched duplex DNA oligonucleotides, measured as fluorescence at 594 nm.

[7] = molecular target: T3, Adenine DNA glycosylase (Homo sapiens) (UniProt Q9UIF7);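 further: human MUTYH activity read as 594 nm fluorescence from cleavage and release of a quenched DNA duplex, coupled with APE1 for strand incision, lower signal meaning inhibition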
T3 sequence (whole entry): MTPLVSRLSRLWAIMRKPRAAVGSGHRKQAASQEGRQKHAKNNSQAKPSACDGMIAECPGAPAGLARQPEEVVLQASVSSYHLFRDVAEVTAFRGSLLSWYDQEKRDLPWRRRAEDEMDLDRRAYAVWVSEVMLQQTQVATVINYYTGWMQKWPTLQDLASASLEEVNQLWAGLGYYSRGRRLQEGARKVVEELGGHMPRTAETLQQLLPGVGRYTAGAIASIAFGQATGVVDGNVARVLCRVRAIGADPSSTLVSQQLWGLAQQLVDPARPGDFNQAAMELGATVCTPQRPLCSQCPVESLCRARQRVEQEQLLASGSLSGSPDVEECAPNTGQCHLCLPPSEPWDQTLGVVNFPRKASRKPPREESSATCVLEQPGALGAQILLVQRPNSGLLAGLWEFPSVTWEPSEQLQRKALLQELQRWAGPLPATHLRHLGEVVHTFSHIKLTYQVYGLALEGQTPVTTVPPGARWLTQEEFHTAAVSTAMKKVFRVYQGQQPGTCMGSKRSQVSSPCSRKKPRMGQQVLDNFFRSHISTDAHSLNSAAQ
Description: Inhibition of MUTYH by quantifying inhibition of MUTYH-mediated cleavage and dissociation of quenched duplex DNA oligonucleotides, measured as fluorescence at 594 nm. To generate a functional strand incision and increase turn-over this assay is coupled to APE1.

[8] = molecular target: G/T mismatch-specific thymine DNA glycosylase (Homo sapiens) (UniProt Q13569);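 further: human TDG cleavage of quenched duplex DNA oligonucleotides coupled to APE1, strand release read as fluorescence at 594 nm, inhibition of TDG activity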
G/T mismatch-specific thymine DNA glycosylase (Homo sapiens), sequence (Q13569 whole entry): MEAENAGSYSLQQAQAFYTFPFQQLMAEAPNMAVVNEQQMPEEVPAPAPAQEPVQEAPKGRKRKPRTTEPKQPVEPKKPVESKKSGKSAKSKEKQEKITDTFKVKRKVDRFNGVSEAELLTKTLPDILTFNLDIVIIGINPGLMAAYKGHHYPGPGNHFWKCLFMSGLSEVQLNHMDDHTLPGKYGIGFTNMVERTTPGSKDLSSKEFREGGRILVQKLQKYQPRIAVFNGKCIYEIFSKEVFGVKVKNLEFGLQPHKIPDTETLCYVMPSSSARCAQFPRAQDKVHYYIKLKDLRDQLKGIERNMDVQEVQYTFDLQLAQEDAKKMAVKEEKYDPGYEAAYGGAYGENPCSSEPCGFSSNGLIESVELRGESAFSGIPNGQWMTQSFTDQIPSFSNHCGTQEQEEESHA
Description: Inhibition of TDG by quantifying inhibition of TDG-mediated cleavage and dissociation of quenched duplex DNA oligonucleotides, measured as fluorescence at 594 nm. To generate a functional strand incision and increase turn-over this assay is coupled to APE1.

[9] = molecular target: T4, Single-strand selective monofunctional uracil DNA glycosylase (Homo sapiens) (UniProt Q53HV7);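 further: enzymatic SMUG1 assay coupled with APE1, reading fluorescence at 594 nm released when a quenched double-stranded DNA oligonucleotide substrate is cleaved and separated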
T4 sequence (whole entry): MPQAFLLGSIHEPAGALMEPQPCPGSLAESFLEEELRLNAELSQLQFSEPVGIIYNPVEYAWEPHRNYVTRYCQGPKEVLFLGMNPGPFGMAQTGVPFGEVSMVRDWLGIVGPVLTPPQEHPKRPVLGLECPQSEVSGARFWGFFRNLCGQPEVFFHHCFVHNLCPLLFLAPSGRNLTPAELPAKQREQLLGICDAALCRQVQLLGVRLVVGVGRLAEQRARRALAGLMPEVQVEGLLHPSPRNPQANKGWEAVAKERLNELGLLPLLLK
Description: Inhibition of SMUG1 by quantifying inhibition of SMUG1-mediated cleavage and dissociation of quenched duplex DNA oligonucleotides, measured as fluorescence at 594 nm. To generate a functional strand incision and increase turn-over this assay is coupled to APE1.

[10] = molecular target: N-glycosylase/DNA lyase (Homo sapiens) (UniProt O15527);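 further: OGG1 cleavage of a quenched duplex DNA oligonucleotide, coupled to APE1 for strand incision, read as fluorescence at 594 nm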
N-glycosylase/DNA lyase (Homo sapiens), sequence (O15527 whole entry): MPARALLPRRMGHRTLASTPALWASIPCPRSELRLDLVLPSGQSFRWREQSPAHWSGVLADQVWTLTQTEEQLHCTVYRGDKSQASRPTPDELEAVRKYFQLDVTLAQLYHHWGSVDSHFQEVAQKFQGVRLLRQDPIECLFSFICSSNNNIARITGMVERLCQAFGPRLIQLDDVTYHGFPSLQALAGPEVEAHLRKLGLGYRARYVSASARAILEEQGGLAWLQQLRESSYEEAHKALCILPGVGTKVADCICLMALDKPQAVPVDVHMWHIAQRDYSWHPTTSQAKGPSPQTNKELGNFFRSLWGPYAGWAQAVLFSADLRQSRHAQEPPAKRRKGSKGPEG
Description: Inhibition of OGG1 by quantifying inhibition of OGG1-mediated cleavage and dissociation of quenched duplex DNA oligonucleotides, measured as fluorescence at 594 nm. To generate a functional strand incision and increase turn-over this assay is coupled to APE1.

SMILES	inhibition [1] [%]	inhibition [2] [%]	inhibition [3] [%]	inhibition [4] [%]	inhibition [5] [%]	inhibition [6] [%]	inhibition [7] [%]	inhibition [8] [%]	inhibition [9] [%]	inhibition [10] [%]
c1ccc(C2CN3CCC2CC3)cc1 (centres undefined)	-3.92	-9.01	3.54	26.2	22	0.158	22.9	22.8		
Fc1cccc(/C=N/N=C/c2cccc(F)c2)c1	-1.37	-6.06	-2.88	15.4	4.13	-5.18	1.53	5.75		
Nc1nc(CC(=O)Nc2ccc(CCNC[C@H](O)c3ccccc3)cc2)cs1	-2.64	-1.78	5.02	22	6.31	3.71	7.21	2.71		
O=C1c2ccccc2C(Cc2ccncc2)(Cc2ccncc2)c2ccccc21	-2.64		12.1	20.4	23.6	6.83	8.2	21.3		
CCN(c1ccccc1)c1cc(NC)[n+](C)c(C)n1	4.75	-8.21	1.67	30.3	25.3	-3.4	7.99	7.48		
C[C@H]1CN(C[C@H](Cc2ccccc2)C(=O)NCC(=O)O)CC[C@@]1(C)c1cccc(O)c1	-9.01	-7.63	22.9	34.4	21.1	-4.44	40.2	37.5		
CCOC(=O)c1ncn2c1[C@@H]1CCCN1C(=O)c1cc(OC)ccc1-2	-4.43	-7.79	-5.68	-3.56	14.4	-2.51	-3.58	-5.12		
C[C@H](C[C@H](N)C(=O)O)C(=O)O	0.414		14.2	-6.04	13.5	-6.51	17	0.112		
CN1CCN(Cc2ccc(-c3cccc(C(=O)Nc4ccccc4CC(=O)O)c3)cc2)CC1	-2.64	-2.65	12.7	-1.91	18.1	17.2	17.7	14.1		
C[C@@H](NC(=O)Cc1ccc(C2CC2)cc1)c1ccc(OCC(F)(F)F)cn1	-6.21	-2.14	10.8	11.3	4.9	0.602	-6.51	4.49		
CC1(C)N=C(C2CCCCC2)c2ccc(C#N)cc2N(c2ccc(NCCNC3CCOCC3)cc2)C1=O	-3.41		7.31	19.6	10.6	4.75	1.14	5.19		
CN1CC[C@@]23CCCC[C@@H]2[C@@H]1Cc1ccc(O)cc13	-9.52	-7.94	-0.416	14.6	3.69	-2.06	-5.81	-3.74		
CN(C(=O)/C=C/c1ccoc1)[C@@H]1CC[C@@]2(O)[C@H]3Cc4ccc(O)c5c4[C@@]2(CCN3CC2CC2)[C@H]1O5	1.76	-6.84	5.81	1.92		14.2	8.72	13.5	-7.79	-1.76
CCCNC(=O)c1nnc2c(-c3c(F)cccc3OC)cccc2c1N	-2.64	-1.98	12.4	27.8	26.8	10.5	24.9	24.5		
CC1(C)Cc2c(CN3CCC4(CC3)CCN(C(=O)c3ccc(N)cn3)CC4)cccc2O1	-6.46		8.62	8.82	21.4	7.27	2.36	-2.08		
CNc1nc(Nc2ccccc2)nc(OC(C(F)(F)F)C(F)(F)F)n1	1.69	1.86	-9.6	19.6		2.83	-4.15	4.54	2.08	-3.77
CN(Cc1cccc(F)c1CNc1cc(F)c(S(=O)(=O)Nc2cscn2)c(F)c1)C(C)(C)C	-2.39	-9.64	20.1	18.7	28.6	2.08	40.5	4.92		
O=C(Nc1cccc(C(F)(F)F)c1)c1cc(Cl)ccc1O	-5.45	-2.86	23.5	5.52		-4.58	0.595	4.24	0.608	-6.43
C[C@H](NC(=O)[C@H](Cc1ccccc1)NC(=O)[C@H](CCC(N)=O)NC(=O)CNC(=O)[C@@H]1CCCN1C(=O)[C@H](Cc1ccccc1)NC(=O)[C@@H](N)Cc1ccc(O)cc1)C(=O)N[C@@H](Cc1ccccc1)C(=O)N[C@@H](CO)C(=O)O	2.96	-4.67	6.08	21.2	12.6	13.2	2.52	9.05		
COC[C@@H](c1ccc(C(F)(F)F)cc1)N1CCN(C2(C)CCN(C(=O)c3c(C)ncnc3C)CC2)C[C@@H]1C		-3.97	-7.67	16.2	11.1	-4.58	7.5	-1.76		
CC[C@H](NC(=O)c1c(C)c(-c2ccccc2)nc2ccccc12)c1ccccc1	-1.98	-6.75	4.04	9.25		-0.204	0.0213	-2.42	-0.0333	-1.61
Cc1ccccc1C(=O)Nc1ccc(C(=O)N2CCCC(N(C)C)c3ccccc32)cc1 (centres undefined)		-2.08	11.6	21.2	19.4	11.6	10.3	18.4		
c1cnc2cc3c(cc2n1)[C@@H]1CNC[C@H]3C1		-9.92	9.33	12.9	15.3	4.16	34.7	13.7		
O=C(O)[C@H]1O[C@H](OP(=O)(O)OP(=O)(O)OC[C@H]2O[C@@H](n3ccc(=O)[nH]c3=O)[C@H](O)[C@@H]2O)[C@H](O)[C@@H](O)[C@@H]1O	-7.23		24.7	15.4	18.3		14.9	15.8		
Cc1cc(C)c(NC(=O)C2CC3CCC2C3)c(C)c1 (centres undefined)		-9.01	7.56	6.35	26.4	-1.18	27.8	5.7		
